Values joined by “and” are separate entries in the source; they are usually repeats but may differ in a detail not shown here. Identical values can stand only once.
Tests used:
MDA-MB-468 = assay: NCI single dose (10 µM) SRB screen; assay type: cell-based, human; details: breast cancer, 48 h
SF-539 = assay: NCI single dose (10 µM) SRB screen; assay type: cell-based, human; details: CNS cancer, 48 h
MALME-3M = assay: NCI single dose (10 µM) SRB screen; assay type: cell-based, human; details: melanoma, 48 h
CCRF-CEM = assay: NCI single dose (10 µM) SRB screen; assay type: cell-based, human; details: leukaemia, 48 h
SN12C = assay: NCI single dose (10 µM) SRB screen; assay type: cell-based, human; details: renal cancer, 48 h
HT29 = assay: NCI single dose (10 µM) SRB screen; assay type: cell-based, human; details: colon cancer, 48 h
NCI/ADR-RES = assay: NCI single dose (10 µM) SRB screen; assay type: cell-based, human; details: ovarian cancer, 48 h
NCI-H322M = assay: NCI single dose (10 µM) SRB screen; assay type: cell-based; details: non-small cell lung cancer, 48 h
PC-3 = assay: NCI single dose (10 µM) SRB screen; assay type: cell-based, human; details: prostate cancer, 48 h
NCI-H23 = assay: NCI single dose (10 µM) SRB screen; assay type: cell-based, human; details: non-small cell lung cancer, 48 h
Staphylococcus aureus = assay: Agar well diffusion method
EKVX = assay: NCI single dose (10 µM) SRB screen; assay type: cell-based, human; details: non-small cell lung cancer, 48 h
SNB-19 = assay: NCI single dose (10 µM) SRB screen; assay type: cell-based, human; details: CNS cancer, 48 h
HOP-92 = assay: NCI single dose (10 µM) SRB screen; assay type: cell-based, human; details: non-small cell lung cancer, 48 h
HCC-2998 = assay: NCI single dose (10 µM) SRB screen; assay type: cell-based, human; details: colon cancer, 48 h
Bacillus subtilis = assay: Agar well diffusion method
UO-31 = assay: NCI single dose (10 µM) SRB screen; assay type: cell-based, human; details: renal cancer, 48 h
IGROV1 = assay: NCI single dose (10 µM) SRB screen; assay type: cell-based, human; details: ovarian cancer, 48 h
SK-MEL-2 = assay: NCI single dose (10 µM) SRB screen; assay type: cell-based, human; details: melanoma, 48 h
HL-60(TB) = assay: NCI single dose (10 µM) SRB screen; assay type: cell-based, human; details: leukaemia, 48 h
COLO 205 = assay: NCI single dose (10 µM) SRB screen; assay type: cell-based, human; details: colon cancer, 48 h
HCT-116 = assay: NCI single dose (10 µM) SRB screen; assay type: cell-based, human; details: colon cancer, 48 h
HCT-15 = assay: NCI single dose (10 µM) SRB screen; assay type: cell-based, human; details: colon cancer, 48 h
NCI-H522 = assay: NCI single dose (10 µM) SRB screen; assay type: cell-based, human; details: non-small cell lung cancer, 48 h
SR = assay: NCI single dose (10 µM) SRB screen; assay type: cell-based, human; details: leukaemia, 48 h
SF-295 = assay: NCI single dose (10 µM) SRB screen; assay type: cell-based, human; details: CNS cancer, 48 h
Escherichia coli = assay: Agar well diffusion method
U251 = assay: NCI single dose (10 µM) SRB screen; assay type: cell-based, human; details: CNS cancer, 48 h
M14 = assay: NCI single dose (10 µM) SRB screen; assay type: cell-based, human; details: melanoma, 48 h
Pseudomonas aeruginosa = assay: Agar well diffusion method
A498 = assay: NCI single dose (10 µM) SRB screen; assay type: cell-based, human; details: renal cancer, 48 h
NCI-H460 = assay: NCI single dose (10 µM) SRB screen; assay type: cell-based, human; details: non-small cell lung cancer, 48 h
SF-268 = assay: NCI single dose (10 µM) SRB screen; assay type: cell-based, human; details: CNS cancer, 48 h
ACHN = assay: NCI single dose (10 µM) SRB screen; assay type: cell-based, human; details: renal cancer, 48 h
KM12 = assay: NCI single dose (10 µM) SRB screen; assay type: cell-based, human; details: colon cancer, 48 h
TK-10 = assay: NCI single dose (10 µM) SRB screen; assay type: cell-based, human; details: renal cancer, 48 h
MOLT-4 = assay: NCI single dose (10 µM) SRB screen; assay type: cell-based, human; details: leukaemia, 48 h
A549/ATCC = assay: NCI single dose (10 µM) SRB screen; assay type: cell-based, human; details: non-small cell lung cancer, 48 h
UACC-62 = assay: NCI single dose (10 µM) SRB screen; assay type: cell-based, human; details: melanoma, 48 h
786-0 = assay: NCI single dose (10 µM) SRB screen; assay type: cell-based, human; details: renal cancer, 48 h
T-47D = assay: NCI single dose (10 µM) SRB screen; assay type: cell-based, human; details: breast cancer, 48 h
SNB-75 = assay: NCI single dose (10 µM) SRB screen; assay type: cell-based, human; details: CNS cancer, 48 h
CAKI-1 = assay: NCI single dose (10 µM) SRB screen; assay type: cell-based, human; details: renal cancer, 48 h
OVCAR-5 = assay: NCI single dose (10 µM) SRB screen; assay type: cell-based, human; details: ovarian cancer, 48 h
SK-MEL-28 = assay: NCI single dose (10 µM) SRB screen; assay type: cell-based, human; details: melanoma, 48 h
K-562 = assay: NCI single dose (10 µM) SRB screen; assay type: cell-based, human; details: leukaemia, 48 h
MDA-MB-435 = assay: NCI single dose (10 µM) SRB screen; assay type: cell-based, human; details: melanoma, 48 h
HOP-62 = assay: NCI single dose (10 µM) SRB screen; assay type: cell-based, human; details: non-small cell lung cancer, 48 h
SK-OV-3 = assay: NCI single dose (10 µM) SRB screen; assay type: cell-based, human; details: ovarian cancer, 48 h
UACC-257 = assay: NCI single dose (10 µM) SRB screen; assay type: cell-based, human; details: melanoma, 48 h
RPMI-8226 = assay: NCI single dose (10 µM) SRB screen; assay type: cell-based, human; details: leukaemia, 48 h
DU-145 = assay: NCI single dose (10 µM) SRB screen; assay type: cell-based, human; details: prostate cancer, 48 h
MDA-MB-231 = assay: NCI single dose (10 µM) SRB screen; assay type: cell-based, human; details: breast cancer, 48 h

COCCOC(=O)C1=C(C)NC(C)=C(C(=O)OCCOC)C1c1cccc(C#N)c1 [Compound 1f, Di(2-methoxyethyl) 4-(3-cyanophenyl)-2,6-dimethyl-1,4-dihydropyridine-3,5-dicarboxylate]
14%: GI% SNB-75 (SNB-75)
16 mm: zone of inhibition at 1000 µg/mL (Bacillus subtilis; Bacillus subtilis, 24 h, read-out: Diameter of inhibition zone, B. subtilis)
– (Only GI% ≥ 10 are shown): GI% SF-539 (SF-539) | GI% MALME-3M (MALME-3M) | GI% CCRF-CEM (CCRF-CEM) | GI% SN12C (SN12C) | GI% HT29 (HT29) | GI% NCI/ADR-RES (NCI/ADR-RES) | GI% NCI-H322M (NCI-H322M) | GI% PC-3 (PC-3) | GI% NCI-H23 (NCI-H23) | GI% EKVX (EKVX) | GI% SNB-19 (SNB-19) | GI% HOP-92 (HOP-92) | GI% HCC-2998 (HCC-2998) | GI% UO-31 (UO-31) | GI% IGROV1 (IGROV1) | GI% SK-MEL-2 (SK-MEL-2) | GI% COLO 205 (COLO 205) | GI% HCT-116 (HCT-116) | GI% HCT-15 (HCT-15) | GI% NCI-H522 (NCI-H522) | GI% SR (SR) | GI% SF-295 (SF-295) | GI% U251 (U251) | GI% M14 (M14) | GI% A498 (A498) | GI% NCI-H460 (NCI-H460) | GI% SF-268 (SF-268) | GI% ACHN (ACHN) | GI% KM12 (KM12) | GI% TK-10 (TK-10) | GI% MOLT-4 (MOLT-4) | GI% A549/ATCC (A549/ATCC) | GI% UACC-62 (UACC-62) | GI% 786-0 (786-0) | GI% T-47D (T-47D) | GI% CAKI-1 (CAKI-1) | GI% OVCAR-5 (OVCAR-5) | GI% SK-MEL-28 (SK-MEL-28) | GI% K-562 (K-562) | GI% MDA-MB-435 (MDA-MB-435) | GI% HOP-62 (HOP-62) | GI% SK-OV-3 (SK-OV-3) | GI% UACC-257 (UACC-257) | GI% RPMI-8226 (RPMI-8226) | GI% DU-145 (DU-145) | GI% MDA-MB-231 (MDA-MB-231)
13%: GI% MDA-MB-468 (MDA-MB-468)
50%: % activity index, E. coli (Escherichia coli; relative to ciprofloxacin)
13 mm: zone of inhibition at 1000 µg/mL (Escherichia coli; Escherichia coli, 24 h, read-out: Diameter of inhibition zone, E. coli)
10%: GI% HL-60(TB) (HL-60(TB))
19 mm: zone of inhibition at 1000 µg/mL (Staphylococcus aureus; Staphylococcus aureus, 24 h, read-out: Diameter of inhibition zone, S. aureus)
17 mm: zone of inhibition at 1000 µg/mL (Pseudomonas aeruginosa; Pseudomonas aeruginosa, 24 h, read-out: Diameter of inhibition zone, P. aeruginosa)
79% and 79.2%: % activity index, S. aureus (Staphylococcus aureus; relative to ciprofloxacin)
73.9%: % activity index, P. aeruginosa (Pseudomonas aeruginosa; relative to ciprofloxacin)
69.6%: % activity index, B. subtilis (Bacillus subtilis; relative to ciprofloxacin)

Reference: PMC9481151, “Discovery of new symmetrical and asymmetrical nitrile-containing 1,4-dihydropyridine derivatives as dual kinases and P-glycoprotein inhibitors: synthesis, in vitro assays, and in silico studies” (Journal of Enzyme Inhibition and Medicinal Chemistry, 2022)
